Measured values reported in ChEMBL document CHEMBL4184310, “Structure-based design and structure-activity relationships of 1,2,3,4-tetrahydroisoquinoline derivatives as potential PDE4 inhibitors” (Bioorg Med Chem Lett, 2018).
Blank lines part the entries; values can stand above or below the molecule they belong to.

Legend:
[1] = biological target: 3',5'-cyclic-AMP phosphodiesterase 4B (Homo sapiens, UniProt Q07343); test: Inhibition of human U937 cells-derived PDE4B using [3H]-cAMP as substrate after 30 mins
[2] = Inhibition of PDE4 in human PBMC assessed as reduction in LPS-stimulated TNFalpha release preincubated for 30 mins followed by LPS stimulation for 18 hrs by TR-FRET assay; assay type: cell-based
[3] = biological target: 3',5'-cyclic-AMP phosphodiesterase 4D (Homo sapiens, UniProt Q08499); test: Inhibition of human U937 cells-derived PDE4D using [3H]-cAMP as substrate after 30 mins
[4] = Stability in rat plasma assessed as parent compound remaining after 4 hrs; assay type: ADME, cell-free; settings: read-out: Stability
[5] = Stability in rat plasma assessed as parent compound remaining after 8 hrs; assay type: ADME, cell-free; settings: read-out: Stability
[6] = biological target: T1, cGMP-dependent 3',5'-cyclic phosphodiesterase (Homo sapiens, UniProt O00408); test: Inhibition of human PDE2A
[7] = biological target: T2, Dual specificity calcium/calmodulin-dependent 3',5'-cyclic nucleotide phosphodiesterase 1A (Homo sapiens, UniProt P54750); test: Inhibition of human PDE1A
[8] = biological target: T3, cAMP and cAMP-inhibited cGMP 3',5'-cyclic phosphodiesterase 10A (Homo sapiens, UniProt Q9Y233); test: Inhibition of human PDE10A2 at 50 uM relative to control
[9] = biological target: T4, Dual 3',5'-cyclic-AMP and -GMP phosphodiesterase 11A (Homo sapiens, UniProt Q9HCR9); test: Inhibition of human PDE11A at 50 uM relative to control
[10] = biological target: T5, High affinity cAMP-specific and IBMX-insensitive 3',5'-cyclic phosphodiesterase 8A (Homo sapiens, UniProt O60658); test: Inhibition of human PDE8A1 at 50 uM relative to control
[11] = biological target: T6, High affinity cGMP-specific 3',5'-cyclic phosphodiesterase 9A (Homo sapiens, UniProt O76083); test: Inhibition of human PDE9A2 at 50 uM relative to control
[12] = biological target: T7, High affinity 3',5'-cyclic-AMP phosphodiesterase 7A (Homo sapiens, UniProt Q13946); test: Inhibition of human PDE7A at 50 uM relative to control
[13] = biological target: T8, Cone cGMP-specific 3',5'-cyclic phosphodiesterase subunit alpha' (Homo sapiens, UniProt P51160); test: Inhibition of human PDE6C at 50 uM relative to control
[14] = biological target: T9, cGMP-specific 3',5'-cyclic phosphodiesterase (Homo sapiens, UniProt O76074); test: Inhibition of human PDE5A at 50 uM relative to control
[15] = biological target: T10, cGMP-inhibited 3',5'-cyclic phosphodiesterase 3B (Homo sapiens, UniProt Q13370); test: Inhibition of human PDE3B at 50 uM relative to control
[16] = biological target: T1, cGMP-dependent 3',5'-cyclic phosphodiesterase; test: Inhibition of human PDE2A at 50 uM relative to control
[17] = biological target: T2, Dual specificity calcium/calmodulin-dependent 3',5'-cyclic nucleotide phosphodiesterase 1A; test: Inhibition of human PDE1A at 50 uM relative to control
Homo sapiens [18] = species on record: Homo sapiens; test: Selectivity ratio of IC50 for human U937 cells-derived PDE4D to IC50 for human U937 cells-derived PDE4B
Homo sapiens [19] = species on record: Homo sapiens; test: Potency index, ratio of rolipram IC50 to compound IC50 for inhibition of PDE4 in human PBMC
Rattus norvegicus = test: Anti-inflammatory activity in Sprague-Dawley rat model of LPS-induced asthma/COPD assessed as inhibition of neutrophilia in BALF at 10 mg/kg, po administered 30 mins prior to LPS challenge for 40 mins relative to control; assay type: functional
Mus musculus = test: Anti-inflammatory activity in Swiss albino mouse model of sepsis assessed as inhibition of LPS-induced TNFalpha release at 10 mg/kg, po administered 30 mins prior to LPS challenge for 90 mins by ELISA relative to control; assay type: functional
[20] = biological target: T10, cGMP-inhibited 3',5'-cyclic phosphodiesterase 3B; test: Inhibition of human PDE3B
[21] = biological target: T9, cGMP-specific 3',5'-cyclic phosphodiesterase; test: Inhibition of human PDE5A
[22] = biological target: T8, Cone cGMP-specific 3',5'-cyclic phosphodiesterase subunit alpha'; test: Inhibition of human PDE6C
[23] = biological target: T7, High affinity 3',5'-cyclic-AMP phosphodiesterase 7A; test: Inhibition of human PDE7A
[24] = biological target: T5, High affinity cAMP-specific and IBMX-insensitive 3',5'-cyclic phosphodiesterase 8A; test: Inhibition of human PDE8A1
[25] = biological target: T6, High affinity cGMP-specific 3',5'-cyclic phosphodiesterase 9A; test: Inhibition of human PDE9A2
[26] = biological target: T3, cAMP and cAMP-inhibited cGMP 3',5'-cyclic phosphodiesterase 10A; test: Inhibition of human PDE10A2
[27] = biological target: T4, Dual 3',5'-cyclic-AMP and -GMP phosphodiesterase 11A; test: Inhibition of human PDE11A

T6 sequence (O76083 whole entry): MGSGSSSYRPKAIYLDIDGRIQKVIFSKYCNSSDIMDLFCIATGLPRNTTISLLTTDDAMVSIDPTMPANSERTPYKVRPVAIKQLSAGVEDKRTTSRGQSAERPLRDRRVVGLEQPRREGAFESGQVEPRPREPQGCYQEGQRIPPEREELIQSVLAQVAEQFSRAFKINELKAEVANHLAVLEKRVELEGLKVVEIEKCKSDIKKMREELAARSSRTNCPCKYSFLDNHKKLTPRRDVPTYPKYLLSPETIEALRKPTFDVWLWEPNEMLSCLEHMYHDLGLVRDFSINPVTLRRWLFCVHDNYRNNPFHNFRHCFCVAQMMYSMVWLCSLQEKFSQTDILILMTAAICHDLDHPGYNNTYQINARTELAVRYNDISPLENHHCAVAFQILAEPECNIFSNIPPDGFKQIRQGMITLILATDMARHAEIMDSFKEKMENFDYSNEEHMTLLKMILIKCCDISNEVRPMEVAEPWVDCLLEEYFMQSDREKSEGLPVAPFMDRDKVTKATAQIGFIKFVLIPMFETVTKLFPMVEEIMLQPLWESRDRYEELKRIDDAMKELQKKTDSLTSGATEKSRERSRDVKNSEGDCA
T8 sequence (P51160 whole entry): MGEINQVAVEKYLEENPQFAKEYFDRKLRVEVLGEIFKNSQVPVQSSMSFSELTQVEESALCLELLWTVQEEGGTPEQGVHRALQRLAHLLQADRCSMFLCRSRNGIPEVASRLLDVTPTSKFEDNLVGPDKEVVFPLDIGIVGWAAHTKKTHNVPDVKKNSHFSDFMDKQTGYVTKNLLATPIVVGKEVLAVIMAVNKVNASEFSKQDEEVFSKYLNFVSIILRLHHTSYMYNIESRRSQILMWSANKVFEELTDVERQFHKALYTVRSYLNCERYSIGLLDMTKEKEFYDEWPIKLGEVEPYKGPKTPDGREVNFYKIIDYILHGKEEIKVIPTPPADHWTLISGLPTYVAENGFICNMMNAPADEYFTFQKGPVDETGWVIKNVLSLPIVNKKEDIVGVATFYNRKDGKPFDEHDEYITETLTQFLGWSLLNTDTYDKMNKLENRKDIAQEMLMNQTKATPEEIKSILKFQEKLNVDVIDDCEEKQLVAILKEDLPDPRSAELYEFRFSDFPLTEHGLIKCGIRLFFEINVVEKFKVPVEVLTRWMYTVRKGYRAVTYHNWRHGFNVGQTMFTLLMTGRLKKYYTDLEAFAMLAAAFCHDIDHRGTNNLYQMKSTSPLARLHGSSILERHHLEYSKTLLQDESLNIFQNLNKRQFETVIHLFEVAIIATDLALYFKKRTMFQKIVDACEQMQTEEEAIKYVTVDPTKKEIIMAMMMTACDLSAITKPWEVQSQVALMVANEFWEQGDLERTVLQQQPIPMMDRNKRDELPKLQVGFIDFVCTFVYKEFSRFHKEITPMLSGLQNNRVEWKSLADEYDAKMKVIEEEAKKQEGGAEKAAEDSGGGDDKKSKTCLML
T1 sequence (O00408 whole entry): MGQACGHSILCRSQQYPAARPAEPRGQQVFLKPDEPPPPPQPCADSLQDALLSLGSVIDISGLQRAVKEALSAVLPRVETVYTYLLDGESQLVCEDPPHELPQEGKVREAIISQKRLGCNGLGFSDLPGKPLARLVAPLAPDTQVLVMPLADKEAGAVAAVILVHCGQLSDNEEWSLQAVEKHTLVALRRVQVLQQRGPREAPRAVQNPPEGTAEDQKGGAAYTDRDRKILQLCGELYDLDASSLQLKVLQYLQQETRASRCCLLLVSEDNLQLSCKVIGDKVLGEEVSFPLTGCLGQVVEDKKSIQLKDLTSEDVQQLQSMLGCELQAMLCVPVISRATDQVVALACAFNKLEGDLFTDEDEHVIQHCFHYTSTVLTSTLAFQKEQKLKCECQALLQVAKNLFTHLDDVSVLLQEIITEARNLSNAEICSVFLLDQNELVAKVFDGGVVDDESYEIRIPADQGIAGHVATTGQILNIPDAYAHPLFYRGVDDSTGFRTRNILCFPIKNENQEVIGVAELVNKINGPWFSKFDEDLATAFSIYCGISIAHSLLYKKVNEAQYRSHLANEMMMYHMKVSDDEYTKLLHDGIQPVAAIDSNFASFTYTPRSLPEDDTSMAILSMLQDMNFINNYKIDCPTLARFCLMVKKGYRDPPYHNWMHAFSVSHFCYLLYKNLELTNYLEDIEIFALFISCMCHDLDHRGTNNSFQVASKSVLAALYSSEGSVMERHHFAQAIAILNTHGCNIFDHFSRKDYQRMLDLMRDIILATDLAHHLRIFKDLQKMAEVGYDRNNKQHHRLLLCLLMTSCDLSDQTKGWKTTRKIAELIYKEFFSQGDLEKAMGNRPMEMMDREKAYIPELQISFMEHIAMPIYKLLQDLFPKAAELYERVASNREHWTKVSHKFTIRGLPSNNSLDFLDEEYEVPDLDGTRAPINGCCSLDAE
T5 sequence (O60658 whole entry): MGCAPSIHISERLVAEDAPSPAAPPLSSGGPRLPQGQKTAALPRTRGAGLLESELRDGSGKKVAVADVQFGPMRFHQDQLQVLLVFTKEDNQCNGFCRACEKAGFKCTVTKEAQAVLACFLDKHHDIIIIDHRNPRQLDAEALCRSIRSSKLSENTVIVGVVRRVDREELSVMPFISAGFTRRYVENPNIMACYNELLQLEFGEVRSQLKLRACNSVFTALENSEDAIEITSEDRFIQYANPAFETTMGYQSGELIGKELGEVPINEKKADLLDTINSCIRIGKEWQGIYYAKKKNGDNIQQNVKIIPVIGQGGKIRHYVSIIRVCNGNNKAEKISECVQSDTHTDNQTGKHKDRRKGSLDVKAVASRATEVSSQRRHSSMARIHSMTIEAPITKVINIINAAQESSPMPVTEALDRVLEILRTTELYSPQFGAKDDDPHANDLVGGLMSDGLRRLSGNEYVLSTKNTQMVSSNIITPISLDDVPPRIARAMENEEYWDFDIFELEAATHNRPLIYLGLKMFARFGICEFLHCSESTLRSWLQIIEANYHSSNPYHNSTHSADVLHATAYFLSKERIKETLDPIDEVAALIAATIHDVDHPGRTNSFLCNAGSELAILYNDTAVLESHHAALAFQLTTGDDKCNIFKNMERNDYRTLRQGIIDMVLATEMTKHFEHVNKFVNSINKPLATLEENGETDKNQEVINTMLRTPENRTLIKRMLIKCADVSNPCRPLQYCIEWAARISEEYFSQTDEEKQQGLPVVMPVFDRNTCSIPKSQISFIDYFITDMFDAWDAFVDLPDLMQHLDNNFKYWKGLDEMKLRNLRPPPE
Sequence of 3',5'-cyclic-AMP phosphodiesterase 4D (Q08499 whole entry): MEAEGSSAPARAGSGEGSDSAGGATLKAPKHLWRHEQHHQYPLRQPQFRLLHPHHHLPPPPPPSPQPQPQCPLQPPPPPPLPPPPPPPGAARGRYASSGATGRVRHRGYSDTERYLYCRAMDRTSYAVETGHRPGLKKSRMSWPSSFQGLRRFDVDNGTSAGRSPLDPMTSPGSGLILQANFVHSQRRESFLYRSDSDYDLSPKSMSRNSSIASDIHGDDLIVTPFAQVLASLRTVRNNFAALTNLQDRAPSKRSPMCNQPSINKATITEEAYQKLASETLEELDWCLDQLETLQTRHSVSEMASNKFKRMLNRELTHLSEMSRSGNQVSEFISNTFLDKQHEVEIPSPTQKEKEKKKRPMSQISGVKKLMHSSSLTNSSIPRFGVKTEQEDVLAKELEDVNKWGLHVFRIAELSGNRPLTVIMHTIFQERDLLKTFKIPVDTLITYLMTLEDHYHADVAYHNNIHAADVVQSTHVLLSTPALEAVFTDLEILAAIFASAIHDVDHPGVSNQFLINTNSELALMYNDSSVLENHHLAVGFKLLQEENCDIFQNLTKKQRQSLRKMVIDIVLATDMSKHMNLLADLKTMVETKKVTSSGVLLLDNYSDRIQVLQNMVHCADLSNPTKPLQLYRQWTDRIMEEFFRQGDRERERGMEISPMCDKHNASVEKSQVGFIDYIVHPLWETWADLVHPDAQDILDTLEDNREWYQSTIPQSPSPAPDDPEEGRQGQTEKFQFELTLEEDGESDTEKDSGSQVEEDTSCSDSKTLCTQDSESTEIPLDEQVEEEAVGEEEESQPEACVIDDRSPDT
T3 sequence (Q9Y233 whole entry): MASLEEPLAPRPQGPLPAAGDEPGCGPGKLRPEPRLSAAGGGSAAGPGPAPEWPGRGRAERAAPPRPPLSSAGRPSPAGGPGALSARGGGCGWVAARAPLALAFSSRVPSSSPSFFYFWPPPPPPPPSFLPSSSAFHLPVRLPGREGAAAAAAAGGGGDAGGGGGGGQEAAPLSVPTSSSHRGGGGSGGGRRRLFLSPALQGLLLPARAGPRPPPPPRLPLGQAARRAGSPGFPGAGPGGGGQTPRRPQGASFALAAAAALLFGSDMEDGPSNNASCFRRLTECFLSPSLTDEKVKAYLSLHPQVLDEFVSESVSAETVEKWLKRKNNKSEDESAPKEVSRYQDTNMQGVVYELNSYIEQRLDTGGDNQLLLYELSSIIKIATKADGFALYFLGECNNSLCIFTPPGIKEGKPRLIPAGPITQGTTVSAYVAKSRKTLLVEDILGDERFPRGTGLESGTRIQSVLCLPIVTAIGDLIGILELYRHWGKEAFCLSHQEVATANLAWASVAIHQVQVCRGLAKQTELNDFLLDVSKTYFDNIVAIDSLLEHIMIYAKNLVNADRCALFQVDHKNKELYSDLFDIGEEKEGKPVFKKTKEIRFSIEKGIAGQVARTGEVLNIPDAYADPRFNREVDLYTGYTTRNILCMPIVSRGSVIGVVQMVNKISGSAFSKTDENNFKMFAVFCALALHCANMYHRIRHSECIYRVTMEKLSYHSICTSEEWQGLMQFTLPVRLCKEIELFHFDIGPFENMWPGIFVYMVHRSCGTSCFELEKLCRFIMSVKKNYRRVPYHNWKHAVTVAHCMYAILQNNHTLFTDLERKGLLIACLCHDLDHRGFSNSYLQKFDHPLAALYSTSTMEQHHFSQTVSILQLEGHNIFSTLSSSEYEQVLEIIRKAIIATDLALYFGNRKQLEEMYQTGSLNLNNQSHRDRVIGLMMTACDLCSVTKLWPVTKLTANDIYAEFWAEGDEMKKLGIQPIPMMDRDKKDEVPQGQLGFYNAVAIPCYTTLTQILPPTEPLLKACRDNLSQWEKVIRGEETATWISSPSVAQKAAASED

Structure (SMILES): COc1cccc(C(=O)N2CCc3cc(OC)c(OC4CCCC4)cc3C2)c1
IC50 [1]: 19.7 µM

Structure (SMILES): COc1ccc(C(=O)N2CCc3cc(OC)c(OC4CCCC4)cc3C2)cc1OC
IC50 [2]: 28.6 µM
IC50 [3]: 18.3 µM
IC50 [1]: 2.85 µM

Structure (SMILES): COc1cc2c(cc1OC1CCCC1)CN(C(=O)c1ccc(O)cc1)CC2
IC50 [2]: 48.3 µM
IC50 [3]: 16.3 µM
IC50 [1]: 3.25 µM

Structure (SMILES): COc1cc2c(cc1OC1CCCC1)CN(C(=O)c1cccc(Cl)c1)CC2
IC50 [1]: 20.5 µM

Structure (SMILES): COc1ccc(C(=O)N2CCc3cc(OC)c(OC4CCCC4)cc3C2)cc1O
IC50 [2]: 36.6 µM
IC50 [3]: 18.6 µM
IC50 [1]: 3.42 µM

Structure (SMILES): CCOC(=O)C1Cc2cc(OC)c(OC3CCCC3)cc2CN1C(=O)c1ccc(OC(F)(F)F)cc1 (centres undefined)
remaining at 4 h [4]: 73.7%
Ratio IC50 (Homo sapiens [18]): 21
remaining at 8 h [5]: 54.9%
IC50 [2]: 12.6 µM
IC50 [3]: 32.7 µM
IC50 [1]: 1.62 µM

Structure (SMILES): CCN(CC)C(=O)C1Cc2cc(OC)c(OC3CCCC3)cc2CN1C(=O)c1ccc(OC(F)(F)F)cc1 (centres undefined)
IC50 [1]: 12.7 µM

Structure (SMILES): COc1cc2c(cc1OC1CCCC1)CN(C(=O)c1ccc(OC(F)(F)F)cc1)CC2
IC50 [2]: 9.85 µM
IC50 [3]: 6.5 µM
IC50 [1]: 1.05 µM

Structure (SMILES): COc1cc2c(cc1OC1CCCC1)CN(S(=O)(=O)c1ccc(NC(C)=O)cc1)CC2
IC50 [6]: > 100 µM
IC50 [7]: > 100 µM
inhibition [8]: 3%
inhibition [9]: 7%
inhibition [10]: 11%
inhibition [11]: 4%
inhibition [12]: 2%
inhibition [13]: 8%
inhibition [14]: 10%
inhibition [15]: 4%
inhibition [16]: 10%
inhibition [17]: 3%
inhibition in vivo at 10 mg/kg (Rattus norvegicus): 37.1%
inhibition in vivo at 10 mg/kg (Mus musculus): 44.3%
IC50 [2]: 5.75 µM
IC50 [3]: 11.6 µM
IC50 [1]: 0.95 µM
IC50 [20]: > 100 µM
IC50 [21]: > 100 µM
IC50 [22]: > 100 µM
IC50 [23]: > 100 µM
IC50 [24]: > 100 µM
IC50 [25]: > 100 µM
IC50 [26]: > 100 µM
IC50 [27]: > 100 µM

Structure (SMILES): COc1cc2c(cc1OC1CCCC1)CN(S(=O)(=O)c1ccc(Cl)cc1)CC2
IC50 [3]: 134 µM
IC50 [1]: 11 µM

Structure (SMILES): COc1cc2c(cc1OC1CCCC1)CN(C(=O)c1ccc(OC(F)(F)F)cc1)C(C(=O)N(C)C)C2 (centres undefined)
IC50 [1]: 8.05 µM

Structure (SMILES): COc1ccc(C2CNC(=O)C2)cc1OC1CCCC1 (centres undefined) [ROLIPRAM]
inhibition in vivo at 10 mg/kg (Rattus norvegicus): 32.5%
inhibition in vivo at 10 mg/kg (Mus musculus): 41.2%

Structure (SMILES): COc1ccc(S(=O)(=O)N2CCc3cc(OC)c(OC4CCCC4)cc3C2)cc1
IC50 [2]: 29.7 µM
IC50 [3]: 43.6 µM
IC50 [1]: 3.1 µM

Structure (SMILES): CNC(=O)C1Cc2cc(OC)c(OC3CCCC3)cc2CN1C(=O)c1ccc(OC(F)(F)F)cc1 (centres undefined)
IC50 [1]: 16.4 µM

Continued, in another order:

remaining at 4 h [4]: 84.2%
remaining at 8 h [5]: 71.6%
IC50 [1]: > 50 µM
Structure (SMILES): COc1cc2c(cc1OC1CCCC1)CN(C(=O)c1ccc(OC(F)(F)F)cc1)C(C(=O)OCc1ccccc1)C2 (centres undefined)

IC50 [6]: > 100 µM
IC50 [7]: > 100 µM
inhibition [8]: 3%
inhibition [9]: 6%
inhibition [10]: 13%
inhibition [11]: 6%
inhibition [12]: 2%
inhibition [13]: 7%
inhibition [14]: 12%
remaining at 4 h [4]: 72.8%
inhibition [15]: 5%
inhibition [16]: 9%
inhibition [17]: 4%
Ratio IC50 (Homo sapiens [18]): 21
Ratio IC50 (Homo sapiens [19]): 5
remaining at 8 h [5]: 51.8%
IC50 [2]: 2.12 µM
IC50 [3]: 18.4 µM
IC50 [1]: 0.88 µM
IC50 [20]: > 100 µM
IC50 [21]: > 100 µM
IC50 [22]: > 100 µM
IC50 [23]: > 100 µM
IC50 [24]: > 100 µM
IC50 [25]: > 100 µM
IC50 [26]: > 100 µM
IC50 [27]: > 100 µM
Structure (SMILES): COC(=O)C1Cc2cc(OC)c(OC3CCCC3)cc2CN1C(=O)c1ccc(OC(F)(F)F)cc1 (centres undefined)
inhibition in vivo at 10 mg/kg (Rattus norvegicus): 45.3%
inhibition in vivo at 10 mg/kg (Mus musculus): 50.2%

IC50 [3]: 92.6 µM
IC50 [1]: 18.4 µM
Structure (SMILES): COc1cc2c(cc1OC1CCCC1)CN(C(=O)c1ccc(Cl)cc1)CC2

IC50 [2]: 69.3 µM
IC50 [1]: 8.35 µM
Structure (SMILES): COc1cc2c(cc1OC1CCCC1)CN(C(=O)c1ccc(OC(F)(F)F)cc1)C(C(=O)O)C2 (centres undefined)

IC50 [1]: > 50 µM
Structure (SMILES): COc1cc2c(cc1OC1CCCC1)CN(C(=O)c1ccc(OC(F)(F)F)cc1)C(C(=O)OC1CCCC1)C2 (centres undefined)

IC50 [2]: 1.21 µM
Structure (SMILES): O=C(Nc1c(Cl)cncc1Cl)c1ccc(OC(F)F)c(OCC2CC2)c1 [ROFLUMILAST]
inhibition in vivo at 10 mg/kg (Rattus norvegicus): 97.6%
inhibition in vivo at 10 mg/kg (Mus musculus): 98.8%

IC50 [1]: > 50 µM
Structure (SMILES): CCCCCOC(=O)C1Cc2cc(OC)c(OC3CCCC3)cc2CN1C(=O)c1ccc(OC(F)(F)F)cc1 (centres undefined)

IC50 [2]: 31.3 µM
IC50 [3]: 13.3 µM
IC50 [1]: 2.38 µM
Structure (SMILES): COc1ccc(C(=O)N2CCc3cc(OC)c(OC4CCCC4)cc3C2)cc1
